Results from publication PMC3491834 (EMBO Molecular Medicine, 2012).

Molecular target: InhA, NADH-dependent enoyl-[Acyl-Carrier-Protein] reductase (Mycobacterium tuberculosis, UniProt P9WGR1)
Assay: enzyme turnover, NADH oxidation at […] nm
Type: biochemical

InhA, NADH-dependent enoyl-[Acyl-Carrier-Protein] reductase, sequence (P9WGR1 whole entry, looked up): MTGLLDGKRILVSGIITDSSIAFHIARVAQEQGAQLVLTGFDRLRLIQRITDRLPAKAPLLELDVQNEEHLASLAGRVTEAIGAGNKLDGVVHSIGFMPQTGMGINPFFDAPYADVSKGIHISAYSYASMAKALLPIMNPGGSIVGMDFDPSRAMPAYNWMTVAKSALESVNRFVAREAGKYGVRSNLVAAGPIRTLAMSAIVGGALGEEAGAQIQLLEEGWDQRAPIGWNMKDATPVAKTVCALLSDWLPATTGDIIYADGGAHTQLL

CCCCC/C=C/C(=O)SCCNC(=O)CCNC(=O)[C@H](O)C(C)(C)COP(=O)(O)OP(=O)(O)OC[C@H]1O[C@@H](n2cnc3c(N)ncnc32)[C@H](O)[C@@H]1OP(=O)(O)O [OcCoA, 2-trans-octenoyl-CoA]
enzyme turnover, NADH oxidation at 340 nm: All three enzymes were catalytically active and oxidized NADH in the presence of the substrate 2-trans-octenoyl-CoA (OcCoA)
